Test results from PubChem BioAssay (NCI).
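Exposure lasted 48 hours, with cells grown in 96-well plates and compounds tested at five concentrations. TGI denotes the concentration required for complete inhibition of growth.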

Legend:
Experiment in all cases: NCI tumour cell line growth inhibition, 48 h
[1] = system: OVCAR-5 ovarian
[2] = system: SNB-19 CNS
[3] = system: UACC-257 melanoma
[4] = system: UO-31 renal
[5] = system: TK-10 renal
[6] = system: EKVX NSCLC
[7] = system: 786-0 renal
[8] = system: HL-60(TB) leukemia
[9] = system: COLO 205 colon
[10] = system: SF-539 CNS
[11] = system: RXF 393 renal
[12] = system: LXFL 529 NSCLC
[13] = system: UACC-62 melanoma
[14] = system: SK-MEL-5 melanoma
[15] = system: SNB-75 CNS
[16] = system: SF-268 CNS
[17] = system: SF-295 CNS
[18] = system: LOX IMVI melanoma
[19] = system: K-562 leukemia
[20] = system: DMS 114 small cell lung
[21] = system: A549 NSCLC
[22] = system: HCC-2998 colon
[23] = system: A498 renal
[24] = system: OVCAR-8 ovarian
[25] = system: MOLT-4 leukemia
[26] = system: SK-MEL-2 melanoma
[27] = system: NCI-H460 lung
[28] = system: SW-620 colon
[29] = system: SNB-78 CNS
[30] = system: M19-MEL melanoma
[31] = system: DLD-1 colon
[32] = system: MALME-3M melanoma
[33] = system: IGROV1 ovarian
[34] = system: SN12C renal
[35] = system: M14 melanoma
[36] = system: XF 498 CNS
[37] = system: NCI-H522 lung
[38] = system: HCT-15 colon
[39] = system: DMS 273 small cell lung
[40] = system: HOP-92 NSCLC
[41] = system: HT29 colon
[42] = system: OVCAR-4 ovarian
[43] = system: SK-MEL-28 melanoma
[44] = system: KM12 colon
[45] = system: CCRF-CEM leukemia
[46] = system: HCT-116 colon
[47] = system: SK-OV-3 ovarian
[48] = system: U251 CNS
[49] = system: NCI-H23 lung
[50] = system: HOP-18 NSCLC
[51] = system: NCI-H226 lung
[52] = system: KM20L2 colon
[53] = system: RPMI-8226 leukemia
[54] = system: ACHN renal
[55] = system: CAKI-1 renal
[56] = system: HOP-62 NSCLC
[57] = system: SR leukemia

Measured: TGI

CCN1C[C@]2(C)CC[C@H](OC)C34C1C([C@H](OC(C)=O)[C@@H]32)[C@@]1(OC)C[C@H](OC)[C@H]2C[C@@H]4[C@@H]1[C@H]2O
> 100 µM: [1] | [2] | [3] | [4] | [5] | [6] | [7] | [8] | [9] | [10] | [11] | [12] | [13] | [14] | [15] | [16] | [17] | [18] | [19] | [20] | [21] | [22] | [23] | [24] | [25] | [26] | [27] | [28] | [29] | [30] | [31] | [32] | [33] | [34] | [35] | [36] | [37] | [38] | [39] | [40] | [41] | [42] | [43] | [44] | [45] | [46] | [47] | [48] | [49] | [50] | [51] | [52] | [53] | [54] | [55] | [56]

O=C(O)CS
> 100 µM: [1] | [2] | [3] | [4] | [5] | [6] | [7] | [8] | [9] | [10] | [11] | [12] | [13] | [14] | [15] | [16] | [17] | [18] | [19] | [20] | [21] | [22] | [25] | [26] | [27] | [28] | [29] | [30] | [31] | [32] | [33] | [34] | [36] | [37] | [38] | [39] | [40] | [57] | [41] | [42] | [43] | [44] | [45] | [46] | [47] | [48] | [49] | [51] | [52] | [53] | [55]
